pIC50: −log10 of the molar value.

One assay deals with Cathepsin S (Homo sapiens, UniProt P25774).
Chain of Cathepsin S (P25774 whole entry): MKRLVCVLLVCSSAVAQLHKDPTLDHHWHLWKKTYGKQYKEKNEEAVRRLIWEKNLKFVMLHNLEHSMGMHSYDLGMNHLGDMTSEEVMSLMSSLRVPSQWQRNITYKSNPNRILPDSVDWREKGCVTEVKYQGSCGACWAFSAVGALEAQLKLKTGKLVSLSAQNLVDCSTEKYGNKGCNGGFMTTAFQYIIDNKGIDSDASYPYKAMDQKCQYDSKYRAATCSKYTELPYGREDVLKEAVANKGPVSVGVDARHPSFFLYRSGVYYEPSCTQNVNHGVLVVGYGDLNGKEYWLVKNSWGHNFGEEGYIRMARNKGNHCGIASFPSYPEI
Description: Inhibition of cathepsin S
Consider `CS(=O)(=O)N1CCc2c(c(-c3ccc(C(F)(F)F)cc3)nn2CC(O)CN2CCC(N3C(=O)COc4ccccc43)CC2)C1` (stereo unspecified), for which the negative logarithm of the IC50 (pIC50) was 7.55.
`CS(=O)(=O)N1CCc2c(c(-c3ccc(Br)cc3)nn2CCCN2CCC(N3C(=O)COc4ccccc43)CC2)C1` showed a pIC50 of 7.22.
Take `CS(=O)(=O)N1CCc2c(c(-c3ccc(Br)cc3)nn2CC(O)CN2CCC(N3CCc4ccccc4C3)CC2)C1` (stereo unspecified): the pIC50 was 5.75.
Same read-out and setting: to `CS(=O)(=O)N1CCc2c(c(-c3ccc(Br)cc3)nn2CC(O)CN2CCC(N3CCCc4ccccc43)CC2)C1` (stereo unspecified) belongs 6.49; to `CS(=O)(=O)N1CCc2c(c(-c3ccc(C(F)(F)F)cc3)nn2CC(O)CN2CCN(c3ccnc4ccccc34)CC2)C1` (stereo unspecified), 5.77; to `CS(=O)(=O)N1CCc2c(c(-c3ccc(Br)cc3)nn2CC(O)CN2CCC(N3c4ccc(Cl)cc4CNS3(=O)=O)CC2)C1` (stereo unspecified), 7.12.
In turn, `CS(=O)(=O)N1CCc2c(c(-c3ccc(C(F)(F)F)cc3)nn2CC(O)CN2CCC(N3C(=O)OCc4ccccc43)CC2)C1` (stereo unspecified) showed a negative logarithm of the IC50 (pIC50) of 7.06.

Another assay deals with T1, Alpha-1A adrenergic receptor (Homo sapiens) (UniProt P35348).
T1 sequence (whole entry): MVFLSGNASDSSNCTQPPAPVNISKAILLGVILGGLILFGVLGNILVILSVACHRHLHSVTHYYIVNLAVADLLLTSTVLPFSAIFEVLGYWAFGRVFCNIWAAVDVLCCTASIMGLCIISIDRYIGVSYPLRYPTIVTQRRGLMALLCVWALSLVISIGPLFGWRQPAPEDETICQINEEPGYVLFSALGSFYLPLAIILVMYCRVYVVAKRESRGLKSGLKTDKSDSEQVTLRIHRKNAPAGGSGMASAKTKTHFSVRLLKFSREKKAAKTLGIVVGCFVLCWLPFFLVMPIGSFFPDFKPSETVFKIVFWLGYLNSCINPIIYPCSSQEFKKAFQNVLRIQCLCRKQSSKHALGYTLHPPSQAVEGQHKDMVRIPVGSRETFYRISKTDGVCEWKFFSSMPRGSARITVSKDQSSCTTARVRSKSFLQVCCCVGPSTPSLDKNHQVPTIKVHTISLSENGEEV
Put plainly: Inhibition of alpha 1A adrenergic receptor at 1 uM.
`CS(=O)(=O)N1CCc2c(c(-c3ccc(C(F)(F)F)cc3)nn2CCCN2CCC(N3C(=O)COc4ccccc43)CC2)C1` showed an inhibition of 72%.
With `CS(=O)(=O)N1CCc2c(c(-c3ccc(C(F)(F)F)cc3)nn2CC(O)CN2CCC(N3C(=O)CCc4cc(Cl)ccc43)CC2)C1` (stereo unspecified), the inhibition was below 10%.
As to `CS(=O)(=O)N1CCc2c(c(-c3ccc(C(F)(F)F)cc3)nn2CC(O)CN2CCC(N3C(=O)COc4ccccc43)CC2)C1` (stereo unspecified), the inhibition was found to be 60%.
`CS(=O)(=O)N1CCc2c(c(-c3ccc(C(F)(F)F)cc3)nn2CC(O)CN2CCC(N3C(=O)NCc4cc(Cl)ccc43)CC2)C1` (stereo unspecified) showed an inhibition of 40%.

By pIC50 is commonly meant the negative decadic logarithm of the IC50, by convention in mol/L. Lower therefore signals a high IC50. As usually defined, the inhibition is the relative decrease from the control value, in per cent. Read a high inhibition as a strong effect.

(Values after ChEMBL document CHEMBL1146958, “The SAR of 4-substituted (6,6-bicyclic) piperidine cathepsin S inhibitors” (Bioorg Med Chem Lett, 2006).)
